According to US7169816B2, “4-bromo or 4-iodo phenylamino benzhydroxamic acid derivatives and their use as MEK inhibitors” (Warner-Lambert Company, priority 1997, dated 2007):
pIC50: −log10 of the molar value. Like-named read-outs stand apart in the source and are kept apart here.

Key:
p45MEK (GST-MEK) = p45MEK (GST-MEK) (Homo sapiens, UniProt Q02750); assay: Cascade assay for inhibitors of the MAP kinase pathway (in vitro); assay type: biochemical
Method: Incorporation of ^32P into myelin basic protein (MBP) was assayed in the presence of a glutathione S-transferase fusion protein containing p44MAP kinase (GST-MAPK) and a glutathione S-transferase fusion protein containing p45MEK (GST-MEK). The assay solution contained 20 mM HEPES, pH 7.4, 10 mM MgCl2, 1 mM MnCl2, 1 mM EGTA, 50 μM [γ-^32P]ATP, 10 μg GST-MEK, 0.5 μg GST-MAPK and 40 μg MBP in a final volume of 100 μL. […] Compounds were assessed at 10 μM for ability to inhibit incorporation of ^32P.
To ascertain whether compounds were inhibiting GST-MEK or GST MAPK, two additional protocols were employed. In the first protocol, compounds were added to tubes containing GST-MEK, followed by addition of GST-MAPK, MBP and [γ-^32P]ATP. In the second protocol, compounds were added to tubes containing both GST-MEK and GST-MAPK, followed by MBP and [γ-^32P]ATP.

[1] = test system: activation of MAP kinase in whole cells; assay: Whole cell MAP kinase assay (in vivo, cell culture); assay type: cell-based
Method: To determine if compounds were able to block activation of MAP kinase in whole cells, the following protocol was used: Cells were plated in multi-well plates and grown to confluence. Cells were then serum-deprived overnight. Cells were exposed to the desired concentrations of compound or vehicle (DMSO) for 30 minutes, followed by addition of a growth factor, eg, PDGF (100 ng/mL). After a 5-minute treatment with the growth factor, cells were washed with PBS, then lysed in a buffer consisting of 70 mM NaCl, 10 mM HEPES (pH 7.4), 50 mM glycerol phosphate, and 1% Triton X-100. Lysates were clarified by centrifugation at 13,000×g for 10 minutes. Five micrograms of the resulting supernatants were incubated with 10 μg microtubule associated protein-2 (Map2) for 15 minutes at 30° C. in a final volume of 25 μL containing 50 mM Tris (pH 7.4), 10 mM MgCl2, 2 mM EGTA and 30 μM [γ-^32P]ATP. Reactions were terminated by addition of Laemmli sample buffer. Phosphorylated Map2 was resolved on 7.5% acrylamide gels and incorporated radioactivity determined by autoradiography and subsequent excision of the bands followed by scintillation counting.

[2] = test system: murine colon tumor, C26/clone 10; assay: Murine colon tumor C26/clone 10 implanted subcutaneously in mice; assay type: in vivo, Male CD2F1 mice; conditions: for Change in Body Weight / Non-Specific Deaths: Days 1 through 14
Method: Male CD2F1 mice (NCI: Charles River, Kingston) were implanted subcutaneously with tumor fragments (approximately 30 mg) in the region of the right axilla on Day 0. […] The vehicle for the test compound, and for control animals, was 10% EtOH/10% Cremophor-EL (Sigma)/80% H2O, pH 5.0. Tumor volumes were recorded three times per week by measuring the length and width of the individual tumors and calculating mass in milligrams according to the formula (a×b^2)/2, where a and b are the length and width of the tumor. Percent treated/control (T/C) was calculated based on the ratio of the median tumor volume of the treated tumors compared with the median tumor volume of control animals on specified measurement days.

Molecule: Cc1cc(I)ccc1Nc1c(C(=O)NO)ccc(F)c1F [Example 84, 3,4-Difluoro-N-hydroxy-2-(4-iodo-2-methyl-phenylamino)-benzamide]
- pIC50 (p45MEK (GST-MEK)): 9.00
- pIC50 [1]: 8.30

Molecule: O=C(NOCC1CC1)c1ccc(F)c(F)c1Nc1ccc(I)cc1Cl [Example 95, 3,4-Difluoro-2-(2-chloro-4-iodo-phenylamino)-N-cyclopropylmethoxy-benzamide]
- % Inhibition ([2]; IP, 48 mg/kg/day, Day 15): 59%
- Change in Body Weight ([2]; IP, 48 mg/kg/day): +3 grams
- Non-Specific Deaths ([2]; IP, 48 mg/kg/day): 0/6
- % Inhibition ([2]; IP, 77 mg/kg/day, Day 15): 98%
- Change in Body Weight ([2]; IP, 77 mg/kg/day): +2 grams
- Non-Specific Deaths ([2]; IP, 77 mg/kg/day): 2/5
- % Inhibition ([2]; IP, 124 mg/kg/day, Day 15): 96%
- Change in Body Weight ([2]; IP, 124 mg/kg/day): +3 grams
- Non-Specific Deaths ([2]; IP, 124 mg/kg/day): 1/6
- % Inhibition ([2]; IP, 200 mg/kg/day, Day 15): 100%
- Change in Body Weight ([2]; IP, 200 mg/kg/day): +2 grams
- Non-Specific Deaths ([2]; IP, 200 mg/kg/day): 1/6
- % Inhibition ([2]; PO, 71 mg/kg/day, Day 17): 64%
- Change in Body Weight ([2]; PO, 71 mg/kg/day): +2 grams
- Non-Specific Deaths ([2]; PO, 71 mg/kg/day): 0/6
- % Inhibition ([2]; PO, 115 mg/kg/day, Day 17): 79%
- Change in Body Weight ([2]; PO, 115 mg/kg/day): +2 grams
- Non-Specific Deaths ([2]; PO, 115 mg/kg/day): 1/6
- % Inhibition ([2]; PO, 186 mg/kg/day, Day 17): 75%
- Change in Body Weight ([2]; PO, 186 mg/kg/day): +2 grams
- Non-Specific Deaths ([2]; PO, 186 mg/kg/day): 0/6
- % Inhibition ([2]; PO, 300 mg/kg/day, Day 17): 83%
- Change in Body Weight ([2]; PO, 300 mg/kg/day): +2 grams
- Non-Specific Deaths ([2]; PO, 300 mg/kg/day): 0/6

Molecule: O=C(NO)c1ccc([N+](=O)[O-])cc1Nc1ccc(I)cc1Cl [Example 82, 2-(2-Chloro-4-iodo-phenylamino)-N-hydroxy-4-nitro-benzamide]
- pIC50 (p45MEK (GST-MEK)): 8.52
- pIC50 [1]: 7.40

Molecule: Cc1cc(I)ccc1Nc1c(C(=O)NOCC2CCCC2)cc(Br)c(F)c1F [Example 101, 5-Bromo-N-cyclopentylmethoxy-3,4-difluoro-2-(4-iodo-2-methyl-phenylamino)-benzamide]
- pIC50 (p45MEK (GST-MEK)): 8.10
- pIC50 [1]: < 6.00

Molecule: 4-Fluoro-N-hydroxy-2-(4-cluoro-2-methyl-phenylamino)-benzamide [Example 11]
- pIC50 (p45MEK (GST-MEK)): 6.48
- pIC50 ([1]; cell culture): 6.30

Molecule: 2-(4-bromo-2-methyl-phenylamino)-4-fluoro-N-hydroxy-benzamide [Example 3]
- pIC50 (p45MEK (GST-MEK)): 7.14
- pIC50 ([1]; cell culture): 5.52

Molecule: CC=CCONC(=O)c1ccc(F)c(F)c1Nc1ccc(I)cc1C [Example 69, N-(But-2-enyloxy)-3,4-difluoro-2-(4-iodo-2-methyl-phenylamino)-benzamide]
- pIC50 (p45MEK (GST-MEK)): 7.80

Molecule: Cc1cc(I)ccc1Nc1ccc(Cl)cc1C(=O)NO [Example 4, 5-Chloro-N-hydroxy-2-(4-iodo-2-methyl-phenylamino)-benzamide]
- pIC50 (p45MEK (GST-MEK)): 7.64

Molecule: Cc1cc(I)ccc1Nc1cc(F)ccc1C(=O)N(O)C(C)C [Example 78, 4-Fluoro-N-hydroxy-2-(4-iodo-2-methyl-phenylamino)-N-isopropyl-benzamide]
- pIC50 (p45MEK (GST-MEK)): 7.10

Molecule: Cc1cc(Br)ccc1Nc1c(C(=O)NOCC#Cc2ccccc2)ccc(F)c1F [Example 33, 3,4-Difluoro-2-(4-bromo-2-methyl-phenylamino)-N-(3-phenyl-prop-2-ynyloxy)-benzamide]
- pIC50 (p45MEK (GST-MEK)): 6.43

Molecule: Cc1cc(I)ccc1Nc1cc(F)ccc1C(=O)NOCc1ccoc1 [Example 20, 4-Fluoro-N-(furan-3-ylmethoxy)-2-(4-iodo-2-methyl-phenylamino)-benzamide]
- pIC50 (p45MEK (GST-MEK)): 7.38

Molecule: Cc1ccccc1Nc1cc(F)ccc1C(=O)NO [Example 9, 4-Fluoro-N-hydroxy-2-(2-methylphenylamino)-benzamide]
- pIC50 (p45MEK (GST-MEK)): 6.39

Molecule: Cc1cc(I)ccc1Nc1c(C(=O)NOCC(C)N(C)C)cc(Br)c(F)c1F (centres unmarked) [Example 92, 5-Bromo-N-(2-dimethylamino-propoxy)-3,4-difluoro-2-(4-iodo-2-methyl-phenylamino)-benzamide]
- pIC50 (p45MEK (GST-MEK)): 7.48

Molecule: Cc1cc(I)ccc1Nc1c(C(=O)NOC(C)C)ccc(F)c1F [Example 47, 3,4-Difluoro-2-(4-iodo-2-methyl-phenylamino)-N-isopropoxy-benzamide]
- pIC50 (p45MEK (GST-MEK)): 7.06

Molecule: Cc1cc(I)ccc1Nc1c(C(=O)NOC2CCCC2)ccc(F)c1F [Example 53, N-Cyclopentyloxy-3,4-difluoro-2-(4-iodo-2-methyl-phenylamino)-benzamide]
- pIC50 (p45MEK (GST-MEK)): 6.85

Molecule: Cc1cc(I)ccc1Nc1c(C(=O)NOCC#Cc2ccccc2F)cc(Br)c(F)c1F [Example 37, 5-Bromo-3,4-difluoro-N-[3-(2-fluoro-phenyl)-prop-2-ynyloxy]-2-(4-iodo-2-methyl-phenylamino)-benzamide]
- pIC50 (p45MEK (GST-MEK)): 8.70

Molecule: Cc1cc(I)ccc1Nc1c(C(=O)NOC2CCCCO2)cc(Br)c(F)c1F (centres unmarked) [Example 86, 5-Bromo-3,4-difluoro-2-(4-iodo-2-methyl-phenylamino)-N-(tetrahydro-pyran-2-yloxy)-benzamide]
- pIC50 (p45MEK (GST-MEK)): 7.33

Molecule: Cc1cc(I)ccc1Nc1c(C(=O)NOCc2ccoc2)ccc(F)c1F [Example 21, 3,4-Difluoro-N-(furan-3-ylmethoxy)-2-(4-iodo-2-methyl-phenylamino)-benzamide]
- pIC50 (p45MEK (GST-MEK)): 7.85

Molecule: C#CCCONC(=O)c1cc(Br)c(F)c(F)c1Nc1ccc(I)cc1C [Example 31, 5-Bromo-N-(but-3-ynyloxy)-3,4-difluoro-2-(4-iodo-2-methyl-phenylamino)-benzamide]
- pIC50 (p45MEK (GST-MEK)): 7.35

Molecule: O=C(NOC1CCCCO1)c1ccc(F)cc1Nc1ccc(I)cc1Cl (centres unmarked) [Example 88, 2-(2-Chloro-4-iodo-phenylamino)-4-fluoro-N-(tetrahydro-pyran-2-yloxy)-benzamide]
- pIC50 (p45MEK (GST-MEK)): 7.16

Molecule: C#CC(C)ONC(=O)c1ccc(F)c(F)c1Nc1ccc(I)cc1C (centres unmarked) [Example 27, 3,4-Difluoro-2-(4-iodo-2-methyl-phenylamino)-N-(1-methyl-prop-2-ynyloxy)-benzamide]
- pIC50 (p45MEK (GST-MEK)): 7.59

Molecule: Cc1cc(I)ccc1Nc1c(C(=O)NOCC2CC2)ccc(F)c1F [Example 56, N-Cyclopropylmethoxy-3,4-difluoro-2-(4-iodo-2-methyl-phenylamino)-benzamide]
- pIC50 (p45MEK (GST-MEK)): 7.85

Molecule: Cc1cc(I)ccc1Nc1cc(F)ccc1C(=O)N(C)O [Example 80, 4-Fluoro-N-hydroxy-2-(4-iodo-2-methyl-phenylamino)-N-methyl-benzamide]
- pIC50 (p45MEK (GST-MEK)): 7.10

Molecule: CC=CCONC(=O)c1cc(Br)c(F)c(F)c1Nc1ccc(I)cc1C [Example 24, 5-Bromo-N-(but-2-enyloxy)-3,4-difluoro-2-(4-iodo-2-methyl-phenylamino)-benzamide]
- pIC50 (p45MEK (GST-MEK)): 7.68

Molecule: Cc1cc(I)ccc1Nc1ccc(Cl)cc1C(=O)NOC1CCCCO1 (centres unmarked) [Example 6, 5-Chloro-2-(4-iodo-2-methyl-phenylamino)-N-(terahydropyran-2-yloxy)benzamide]
- pIC50 (p45MEK (GST-MEK)): 6.46

Molecule: CCCONC(=O)c1ccc(F)c(F)c1Nc1ccc(I)cc1C [Example 43, 3,4-Difluoro-2-(4-iodo-2-methyl-phenylamino)-N-propoxy-benzamide]
- pIC50 (p45MEK (GST-MEK)): 7.40

Molecule: CONC(=O)c1cc(Cl)ccc1Nc1ccc(I)cc1C [Example 7, 5-Chloro-2-(4-iodo-2-methyl-phenylamino)-N-methoxybenzamide]
- pIC50 (p45MEK (GST-MEK)): 6.66

Molecule: Cc1cc(I)ccc1Nc1c(C(=O)NOCc2cccs2)ccc(F)c1F [Example 63, 3,4-Difluoro-2-(4-iodo-2-methyl-phenylamino)-N-(thiophen-2-ylmethoxy)-benzamide]
- pIC50 (p45MEK (GST-MEK)): 7.72

Molecule: Cc1cc(I)ccc1Nc1c(C(=O)NOCC2CC2)cc(F)c(F)c1F [Example 79, N-Cyclopropylmethoxy-3,4,5-trifluoro-2-(4-iodo-2-methyl-phenylamino)-benzamide]
- pIC50 (p45MEK (GST-MEK)): 8.10

Molecule: CONC(=O)c1ccc(F)cc1Nc1ccc(I)cc1C [Example 13, 4-Fluoro-2-(4-iodo-2-methyl-phenylamino)-N-methoxy-benzamide]
- pIC50 (p45MEK (GST-MEK)): 6.61

Molecule: CC(C#Cc1ccccc1)=CCONC(=O)c1ccc(F)c(F)c1Nc1ccc(Br)cc1C [Example 39, 2-(4-Bromo-2-methyl-phenylamino)-3,4-difluoro-N-(3-methyl-5-phenyl-pent-2-en-4-ynyloxy)-benzamide]
- pIC50 (p45MEK (GST-MEK)): 6.83
